Where a name gives a salt, the structure may show the parent alone.
Tests used:
[1] = test system: uterus growth induced by 17β-estradiol; test: Anti-uterus growth test in the adult rat; assay type: in vivo; settings: ovariectomized adult rat, percentage inhibition of uterus growth; for inhibition in vivo at 0.3 mg/kg: sc, 0.3 mg/kg s.c. d1-d3 with 1.5 μg/kg/day 17β-estradiol, read-out: Anti-oestrogenic activity in vivo in % at a dose of 0.3 mg/kg (rat); for Anti-oestrogenic activity in vivo in % at a dose of 1 mg/kg (rat): 1 mg/kg s.c. d1-d3 with 1.5 μg/kg/day 17β-estradiol
Source text: The uterus of oestrogen-substituted rats can be used as a test model for detecting a direct action of substances with anti-oestrogenic properties. The parameter of oestrogenic action is estradiol-induced uterus growth in rats, which is inhibited by simultaneous administration of a substance with anti-oestrogenic action. The experimental animals (n=5-6 animals/group) were ovariectomized before the start of the test, to rule out the influence of endogenous oestrogens. After a phase of 6 to 10 days, the test substances are administered s.c. on 3 consecutive days (d1-d3) in combination with a substitution dose of 1.5 μg/kg/day of 17β-estradiol. 17β-estradiol alone serves as positive control, and the excipients serve as negative control. On day 4 (d4) the animals are killed, and the uteri and vaginae are removed and weighed. The organ weights are converted to mg/100 g body weight, then the mean value and the standard deviation are calculated for each dosage. The inhibition of uterus or vaginal growth induced by 17β-estradiol is shown as percentage inhibition. The selected claimed substances were investigated in adult female rats as described for their anti-oestrogenic, inhibitory action on the weight of the uterus. At the dosage used, the substances show a marked anti-oestrogenic action in vivo (Table 3 and Table 4).

oestrogen receptor (ER) = target: T1, oestrogen receptor (ER) (Homo sapiens, UniProt P03372); test: Anti-oestrogenic action in MVLN cells (inhibition of estradiol-induced luciferase, transactivation antagonism); assay type: cell-based; settings: inhibition of estradiol-induced luciferase activity, read-out: Anti-oestrogenic action in vitro: MVLN transactivation antagonism IC50
T1 construct: These MVLN cells express, along with the functional oestrogen receptor (ER), a reporter construct; endogenous in cells; host or cells: MVLN cells (MCF7 derivative with ER-responsive luciferase reporter)
T1 sequence (P03372 1-595): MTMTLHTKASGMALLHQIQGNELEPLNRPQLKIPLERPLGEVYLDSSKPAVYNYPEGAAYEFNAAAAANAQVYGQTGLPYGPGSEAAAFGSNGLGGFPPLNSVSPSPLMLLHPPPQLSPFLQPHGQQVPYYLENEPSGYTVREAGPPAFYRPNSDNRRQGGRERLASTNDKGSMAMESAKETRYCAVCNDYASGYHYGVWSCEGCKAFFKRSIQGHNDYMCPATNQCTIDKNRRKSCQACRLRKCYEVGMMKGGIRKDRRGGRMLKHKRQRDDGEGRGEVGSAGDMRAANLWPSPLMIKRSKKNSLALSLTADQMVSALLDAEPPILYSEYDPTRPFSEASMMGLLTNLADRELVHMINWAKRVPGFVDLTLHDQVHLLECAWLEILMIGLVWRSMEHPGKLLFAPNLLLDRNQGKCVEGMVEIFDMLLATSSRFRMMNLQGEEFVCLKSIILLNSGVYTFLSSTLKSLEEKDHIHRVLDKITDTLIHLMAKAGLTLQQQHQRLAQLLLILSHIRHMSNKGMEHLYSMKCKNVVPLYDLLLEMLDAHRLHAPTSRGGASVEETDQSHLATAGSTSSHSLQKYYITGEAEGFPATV
Procedure, shortened: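 MCF7-derived MVLN cells carrying an ER-driven luciferase reporter; test compounds applied with estradiol, and anti-oestrogenic action scored as inhibition of the estradiol-induced luciferase signal.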

[2] = test system: ovarian estradiol synthesis; test: Stimulation of ovarian oestrogen synthesis (HPG axis) in hormonally intact adult rats; assay type: in vivo, rat; settings: 3 mg/kg daily for 10 days, quotient of peripheral estradiol values after and before treatment
Source text: The clinical use both of pure anti-oestrogens and of various SERMs for the treatment of premenopausal women is limited by their property of stimulating the ovaries through activation of the hypothalamic-pituitary-gonadal axis (HPG axis), which leads to the increase in peripheral estradiol levels (Palomba, S., Orio, F., Jr., Morelli, M., Russo, T., Pellicano, M., Zupi, E., Lombardi, G., Nappi, C., Panici, P. L., and Zullo, F. (2002). Raloxifene administration in premenopausal women with uterine leiomyomas: a pilot study. J Clin Endocrinol Metab 87, 3603-3608). This stimulation of the HPG axis is associated with penetration of the blood-brain barrier and penetration of the brain. To investigate the ovary-stimulating properties of the claimed pharmacological compounds, hormonally intact adult rats were treated with the substances daily for a period of 10 days. The study end point is the quotient of peripheral estradiol values after and before treatment.
Selected claimed pharmacological substances were investigated as described for their stimulating action on the HPG axis or ovarian estradiol synthesis. The selected substances show markedly less stimulation of the ovaries than the control compound raloxifene at equal dosages (cf. Table 5).

SMILES: CN(CCCCCC1=C(c2ccc(O)c(F)c2)CCCc2cc(O)ccc21)CCCS(=O)(=O)CCCC(F)(F)C(F)(F)F [Example 38, 8-(3-Fluoro-4-hydroxyphenyl)-9-[5-(methyl{3-[(4,4,5,5,5-pentafluoropentyl)sulphonyl]propyl}amino)pentyl]-6,7-dihydro-5H-benzo[7]annulen-3-ol]
- inhibition in vivo at 0.3 mg/kg [1]: 57%
- IC50 (oestrogen receptor (ER)): 2 nM
- Stimulation of ovarian oestrogen synthesis: factor at a dose of 3 mg/kg rat [2]: 1.7

SMILES: CN(CCCCCCC1=C(c2ccc(O)cc2)CCCc2cc(O)ccc21)CCCS(=O)(=O)CCCC(F)(F)C(F)(F)F [Example 27, 8-(4-Hydroxyphenyl)-9-[6-(methyl{3-[(4,4,5,5,5-pentafluoropentyl)sulphonyl]propyl}amino)hexyl]-6,7-dihydro-5H-benzo[7]annulen-3-ol]
- inhibition in vivo at 0.3 mg/kg [1]: 80%
- IC50 (oestrogen receptor (ER)): 1 nM
- Stimulation of ovarian oestrogen synthesis: factor at a dose of 3 mg/kg rat [2]: 2.4

SMILES: CN(CCCCCCC1=C(c2ccc(S(C)(=O)=O)cc2)CCCc2cc(O)ccc21)CCCS(=O)(=O)CCCC(F)(F)C(F)(F)F [Example 49, 8-(4-Mesylphenyl)-9-[6-(methyl{3-[(4,4,5,5,5-pentafluoropentyl)sulphonyl]propyl}amino)hexyl]-6,7-dihydro-5H-benzo[7]annulen-3-ol]
- inhibition in vivo at 0.3 mg/kg [1]: 72%
- IC50 (oestrogen receptor (ER)): 3 nM

SMILES: O=C(c1ccc(OCCN2CCCCC2)cc1)c1c(-c2ccc(O)cc2)sc2cc(O)ccc12 [raloxifene hydrochloride, raloxifene, reference compound]
- Stimulation of ovarian oestrogen synthesis: factor at a dose of 3 mg/kg rat [2]: 3.1

SMILES: CN(CCCCCC1=C(c2ccccc2)CCCc2cc(O)ccc21)CCC[S+]([O-])CCCC(F)(F)C(F)(F)F (racemic) [Example 2, 9-[5-(Methyl{3-[(RS)-(4,4,5,5,5-pentafluoropentyl)sulphinyl]propyl}amino)pentyl]-8-phenyl-6,7-dihydro-5H-benzo[7]annulen-3-ol]
- Anti-oestrogenic activity in vivo in % at a dose of 1 mg/kg (rat) [1]: 94%
- inhibition in vivo at 0.3 mg/kg [1]: 51%
- IC50 (oestrogen receptor (ER)): 8 nM
- Stimulation of ovarian oestrogen synthesis: factor at a dose of 3 mg/kg rat [2]: 1.8

SMILES: CN(CCCCCCC1=C(c2cccc(O)c2)CCCc2cc(O)ccc21)CCCS(=O)(=O)CCC(F)(F)F [Example 56, 8-(3-Hydroxyphenyl)-9-[6-(methyl{3-[(3,3,3-trifluoropropyl)sulphonyl]propyl}amino)hexyl]-6,7-dihydro-5H-benzo[7]annulen-3-ol]
- inhibition in vivo at 0.3 mg/kg [1]: 33%
- IC50 (oestrogen receptor (ER)): 3 nM

SMILES: CN(CCCCCCC1=C(c2ccc(F)c(O)c2)CCCc2c1ccc(O)c2Cl)CCCS(=O)(=O)CCCC(F)(F)C(F)(F)F [Example 24, 4-Chloro-8-(4-fluoro-3-hydroxyphenyl)-9-[6-(methyl{3-[(4,4,5,5,5-pentafluoropentyl)sulphonyl]propyl}amino)hexyl]-6,7-dihydro-5H-benzo[7]annulen-3-ol]
- inhibition in vivo at 0.3 mg/kg [1]: 14%
- IC50 (oestrogen receptor (ER)): 13 nM

SMILES: CN(CCCCCC1=C(c2ccc(S(C)(=O)=O)cc2)CCCc2cc(O)ccc21)CCC[S+]([O-])CCCC(F)(F)C(F)(F)F (racemic) [Example 46, 8-(4-Mesylphenyl)-9-[5-(methyl{3-[(RS)-(4,4,5,5,5-pentafluoropentyl)sulphinyl]propyl}amino)pentyl]-6,7-dihydro-5H-benzo[7]annulen-3-ol]
- Anti-oestrogenic activity in vivo in % at a dose of 1 mg/kg (rat) [1]: 31%
- IC50 (oestrogen receptor (ER)): 14 nM

SMILES: CN(CCCCCC1=C(c2ccccc2)CCCc2cc(O)ccc21)CCCSCCCC(F)(F)C(F)(F)F [Example 1, 9-[5-(Methyl{3-[(4,4,5,5,5-pentafluoropentyl)sulphanyl]propyl}amino)pentyl]-8-phenyl-6,7-dihydro-5H-benzo[7]annulen-3-ol]
- Anti-oestrogenic activity in vivo in % at a dose of 1 mg/kg (rat) [1]: 65%
- IC50 (oestrogen receptor (ER)): 37 nM

SMILES: CN(CCCCCC1=C(c2cccc(O)c2)CCCc2cc(O)ccc21)CCCC[S+]([O-])CCCC(F)(F)C(F)(F)F (racemic) [Example 6, 8-(3-Hydroxyphenyl)-9-[5-(methyl{4-[(RS)-(4,4,5,5,5-pentafluoropentyl)sulphinyl]butyl}amino)pentyl]-6,7-dihydro-5H-benzo[7]annulen-3-ol]
- Anti-oestrogenic activity in vivo in % at a dose of 1 mg/kg (rat) [1]: 64%
- inhibition in vivo at 0.3 mg/kg [1]: 22%
- IC50 (oestrogen receptor (ER)): 4 nM

SMILES: CN(CCCCCCC1=C(c2ccccc2)CCCc2cc(O)ccc21)CCC[S+]([O-])CCCC(F)(F)C(F)(F)F (racemic) [Example 64, 9-[6-(Methyl{3-[(RS)-(4,4,5,5,5-pentafluoropentyl)sulphinyl]propyl}amino)hexyl]-8-phenyl-6,7-dihydro-5H-benzo[7]annulen-3-ol]
- inhibition in vivo at 0.3 mg/kg [1]: 85%
- IC50 (oestrogen receptor (ER)): 5 nM

SMILES: CN(CCCCCC1=C(c2cccc(O)c2)CCCc2cc(O)ccc21)CCCCS(=O)(=O)CCCC(F)(F)C(F)(F)F [Example 7, 8-(3-Hydroxyphenyl)-9-[5-(methyl{4-[(4,4,5,5,5-pentafluoropentyl)sulphonyl]butyl}amino)pentyl]-6,7-dihydro-5H-benzo[7]annulen-3-ol]
- inhibition in vivo at 0.3 mg/kg [1]: 31%
- IC50 (oestrogen receptor (ER)): 5 nM
- Stimulation of ovarian oestrogen synthesis: factor at a dose of 3 mg/kg rat [2]: 1.8

SMILES: CN(CCCCCCC1=C(c2ccc(F)c(O)c2)CCCc2cc(O)ccc21)CCCS(=O)(=O)CCCC(F)(F)C(F)(F)F [Example 29, 8-(4-Fluoro-3-hydroxyphenyl)-9-[6-(methyl{3-[(4,4,5,5,5-pentafluoropentyl)sulphonyl]propyl}amino)hexyl]-6,7-dihydro-5H-benzo[7]annulen-3-ol]
- inhibition in vivo at 0.3 mg/kg [1]: 61%
- IC50 (oestrogen receptor (ER)): 3 nM
- Stimulation of ovarian oestrogen synthesis: factor at a dose of 3 mg/kg rat [2]: 1.1

SMILES: CN(CCCCCC1=C(c2ccc(O)c(F)c2)CCCc2cc(O)ccc21)CCC[S+]([O-])CCCC(F)(F)C(F)(F)F (racemic) [Example 37, 8-(3-Fluoro-4-hydroxyphenyl)-9-[5-(methyl{3-[(RS)-(4,4,5,5,5-pentafluoropentyl)sulphinyl]propyl}amino)pentyl]-6,7-dihydro-5H-benzo[7]annulen-3-ol]
- inhibition in vivo at 0.3 mg/kg [1]: 59%
- IC50 (oestrogen receptor (ER)): 1 nM

SMILES: CN(CCCCCCC1=C(c2cccc(O)c2)CCCc2cc(O)ccc21)CCCS(=O)(=O)CCCC(F)(F)F [Example 51, 8-(3-Hydroxyphenyl)-9-[6-(methyl{3-[(4,4,4-trifluorobutyl)sulphonyl]propyl}amino)hexyl]-6,7-dihydro-5H-benzo[7]annulen-3-ol]
- inhibition in vivo at 0.3 mg/kg [1]: 62%
- IC50 (oestrogen receptor (ER)): 2 nM

SMILES: CN(CCCCCCC1=C(c2cccnc2)CCCc2cc(O)ccc21)CCCS(=O)(=O)CCCC(F)(F)C(F)(F)F [Example 44, 9-[6-(Methyl{3-[(4,4,5,5,5-pentafluoropentyl)sulphonyl]propyl}amino)hexyl]-8-(3-pyridyl)-6,7-dihydro-5H-benzo[7]annulen-3-ol]
- inhibition in vivo at 0.3 mg/kg [1]: 32%
- IC50 (oestrogen receptor (ER)): 7 nM

— patent publication US20150080438A1, “6,7-Dihydro-5H-benzo[7]annulene derivatives, processes for their preparation, pharmaceutical products comprising them and their use for preparing medicaments” (Bayer Intellectual Property GmbH, priority 2011, published 2015)
